# In patent publication US4543256A, “(-)-10,1L Methylenedioxy-N-N-propylnoraporphine and methods employing it for inhibiting the effects of epileptic seizures and for prevention and treatment of duodenal ulcers” (Northeastern University, priority 1982, dated 1985):
# Entries after “also recorded” stand apart in the source; their conditions may differ. Structures can show the parent of a compound that is named as a salt.
# Key:
# rats [1] = assay: Locomotor (general motor) activity, electronic activity monitor; assay type: in vivo, rat (male Sprague-Dawley)
# Experimental: (§1) Male Sprague-Dawley (Charles River Labs.) rats (initially 175-200 g) were housed four per cage, with free access to food and water, under controlled lighting (on 7:00 a.m. to 7:00 p.m.), constant temperature 21°-23° C. and controlled humidity (40-50%). Aporphines were administered, as described below, freshly dissolved in 1 mM citric acid mixed with 0.9% (w/v) saline (1:4, vols.); this solvent was also used as a vehicle ("placebo") control. Haloperidol was given in the same medium; 2-diethyl aminoethyl-2,2 diphenylvalerate HCl (SKF-525A) was given in saline.
# Locomotor activity was evaluated by use of a printing electronic activity monitor (EAM, Stoelting Co., Chicago, IL) within a sound-attenuated chamber, typically for 60 min., as described previously (Stewart, Campbell, Sperk and Baldessarini, 1979, Psychopharmacology 60 281-289; Campbell and Baldessarini, 1981a, Psychopharmacology 73:219-222.
# (§2) In all experiments except those which evaluated the time-course of drug effects, rats were given an injection of vehicle and then allowed to rest for 15 min. to adapt to nonspecific arousal effects, prior to a second injection of test agent (or placebo) and immediate behavioral testing. Behavioral data were evaluated by Student's t-test and are always expressed as mean ±SEM.
# Data are mean values ±SEM (N=4 to 8 rats per condition). Animals were pretreated with SKF-525A (40 mg/kg, i.p.) or its vehicle 30 min before MDO-NPA (in the doses noted, from 0 to 3 mg/kg, i.p.). Activity was then monitored electronically for an hour after the low doses of MDO-NPA (data in counts/hour), or rated for stereotypy every 10 min for an hour after higher doses. N.D. indicates "not determined." (*) Indicates a significant difference by t-test between control and oxidase inhibitor-pretreated rats (p<0.01).
# Data are mean values ±SEM (N=3 to 6 rats per condition) for effects of seven aporphine compounds (R=substituents, keyed to the structure above). Full chemical names for all compounds are provided in Methods. Ratings are expressed as percent of the maximum possible score (100%)=18.0) of stereotypy (Placebo-injected controls yielded scores of 4.4±2.5%); and as the percent of control locomotor activity (100%=430±86 counts/hr). Data are provided for a dose of 10 mg/kg (i.p.), although doses of 1 and 5 mg/kg were also tested.
# gastric acid output = assay: Cysteamine induced gastric acid output; assay type: in vivo, rat; conditions: for INITIAL OUTPUT (gastric acid): at opening of gastric fistula, control 187 ± 20; for Gastric acid output, 1 hr: control 68 ± 17; for Gastric acid output, 6 hr: control 91 ± 12; for Gastric acid output, 7 hr: control 99 ± 10; for Gastric acid output, 5 hr: control 104 ± 18; for Gastric acid output, 4 hr: control 110 ± 25; for Gastric acid output, 3 hr: control 141 ± 32; for Gastric acid output, 2 hr: control 195 ± 48; for TOTAL OUTPUT (gastric acid): control 1043 ± 102
# Experimental: (A) In addition, rats of all groups were given cysteamine HCL, 15 mg. 100
# g p.o. × 1, 30 min. after (the last dose of) MDO--NPA.
# (B) At the opening of gastric fistula
# rats [2] = assay: Stereotyped behavior of rats (rating scale; score, onset and duration); assay type: in vivo, rat (male Sprague-Dawley); conditions: for Duration of Effect (stereotypy): complete when scores ≤3; for Stereotypy Score for 30 min after MDO--NPA: maximum possible 18.0, N=5
# Experimental: as §1
# Stereotyped behavior was evaluated by a trained observer according to a rating scale method reported previously (Campbell and Baldessarini, 1981a). Briefly, the ratings were as follows: 0, no stereotypy, normal locomotion; 1, discontinuous sniffing, reduced locomotion; 2, continuous sniffing, only periodic exploration; 3, continuous sniffing, mouth movements, infrequent, exploratory activity, Ratings were made each 10 min. by observation for 30 sec, typically for 60 min. (maximum score=18.0/hour).
# as §2
# Data are mean values ±SEM for N=6 rats per group given doses of each aporphine (1mg/kg/, or approximately 3 umole/kg) by orogastric intubation (P.O.), or subcutaneous (S.C.) or intraperitoneal (I.P.) injection. Stereotypy was rated for one hour as described in Methods and duration is defined as complete when scores diminished to ≤3 (out of a maximum possible score of 18).
# Data are mean values ±SEM (N=4 to 8 rats per condition). […] N.D. indicates "not determined." (*) Indicates a significant difference by t-test between control and oxidase inhibitor-pretreated rats (p<0.01).
# Stereotypy was rated for 60 min as described in Methods. Data are means SEM (stereotypy scores, when 18=maximum in 1 hour) for N=6 rats per group; (*) indicates p<0.0001 by t test.
# Data are mean values ±SEM (N=3 to 6 rats per condition) for effects of seven aporphine compounds (R=substituents, keyed to the structure above). Full chemical names for all compounds are provided in Methods. […] Data are provided for a dose of 10 mg/kg (i.p.), although doses of 1 and 5 mg/kg were also tested.
# Adenylate cyclase = Adenylate cyclase stimulation (cAMP) in rat striatal homogenates; assay type: biochemical; conditions: 100 μM; control (no addition) 2.38 ± 0.14; N=4
# Source text: of cAMP in rat striatal homogenates; inhibition of binding of
# duodenal ulcers = assay: Cysteamine-induced duodenal ulcer in the rat; conditions: for Duodenal Ulcer Intensity (Scale: 0-3): control 1.8; for Duodenal Ulcer Incidence (Positive/Total): control 10/12
# [3] = group 3: 0.1 mg/100 g × 1 day, 1 week
# [4] = group 3: 0.1 mg/100 g × 1 day, 1 week, P < 0.01
# [5] = group 3: 0.1 mg/100 g × 1 day, 1 week, P < 0.001
# [6] = group 3: 0.1 mg/100 g × 1 day, 1 week, P < 0.09
# [7] = 50 μg/100g s.c. once daily seven days
# [8] = 100 μg/100g s.c. once daily seven days
structure (smiles),measurement,setting,value
"CCCN1CCc2cccc3c2[C@H]1Cc1ccc2c(c1-3)OCO2 [MDO-NPA, (-) 10, 11-methylenedioxy-N-n-propylnoraporphine-HCl]",minimal effective dose,"rats [1]; Rattus norvegicus, ip, read-out: dose producing increases in general motor activity",> 2 µmol/kg
same,Activity,"rats [1]; SKF-525A 40 mg/kg i.p. 30 min before MDO-NPA 0.05 mg/kg i.p., p<0.01 vs control",425 ± 40 counts/hour
same,Activity,"rats [1]; SKF-525A 40 mg/kg i.p. 30 min before MDO-NPA 0.10 mg/kg i.p., p<0.01 vs control",415 ± 29 counts/hour
same,Activity,"rats [1]; SKF-525A 40 mg/kg i.p. 30 min before MDO-NPA 0.20 mg/kg i.p., p<0.01 vs control",410 ± 32 counts/hour
same,Activity,rats [1]; SKF-525A 40 mg/kg i.p. 30 min before MDO-NPA 0.30 mg/kg i.p.,440 ± 38 counts/hour
same,Activity,"rats [1]; control (vehicle pretreated), MDO-NPA 0.05 mg/kg i.p.",190 ± 20 counts/hour
same,Activity,"rats [1]; control (vehicle pretreated), MDO-NPA 0.10 mg/kg i.p.",130 ± 30 counts/hour
same,Activity,"rats [1]; control (vehicle pretreated), MDO-NPA 0.20 mg/kg i.p.",260 ± 33 counts/hour
same,Activity,"rats [1]; control (vehicle pretreated), MDO-NPA 0.30 mg/kg i.p.",435 ± 29 counts/hour
same,"dose of maximum effect, inhibition of locomotor activity","rats [1]; i.p., about 0.1 mg/kg",0.3 µmol/kg
same,INITIAL OUTPUT (gastric acid),"gastric acid output; group 2: × 1 day, P < 0.001",47 ± 13 μ Eq
same,"Gastric acid output, 1 hr",gastric acid output; group 2: × 1 day,28 ± 18 μ Eq
same,"Gastric acid output, 6 hr","gastric acid output; group 2: × 1 day, P < 0.01",20 ± 11 μ Eq
same,"Gastric acid output, 7 hr","gastric acid output; group 2: × 1 day, P < 0.001",18 ± 6 μ Eq
same,"Gastric acid output, 5 hr","gastric acid output; group 2: × 1 day, P < 0.01",10 ± 3 μ Eq
same,"Gastric acid output, 4 hr","gastric acid output; group 2: × 1 day, P < 0.09",17 ± 8 μ Eq
same,"Gastric acid output, 3 hr",gastric acid output; group 2: × 1 day,81 ± 40 μ Eq
same,"Gastric acid output, 2 hr",gastric acid output; group 2: × 1 day,66 ± 29 μ Eq
same,TOTAL OUTPUT (gastric acid),"gastric acid output; group 2: × 1 day, P < 0.001",288 ± 67 μ Eq
same,INITIAL OUTPUT (gastric acid),gastric acid output; [3],120 ± 36 μ Eq
same,"Gastric acid output, 1 hr",gastric acid output; [3],29 + 10 μ Eq
same,"Gastric acid output, 6 hr",gastric acid output; [4],18 ± 14 μ Eq
same,"Gastric acid output, 7 hr",gastric acid output; [5],9 ± 4 μ Eq
same,"Gastric acid output, 5 hr",gastric acid output; [4],17 ± 7 μ Eq
same,"Gastric acid output, 4 hr",gastric acid output; [4],14 ± 6 μ Eq
same,"Gastric acid output, 3 hr",gastric acid output; [6],36 ± 9 μ Eq
same,"Gastric acid output, 2 hr",gastric acid output; [6],66 + 21 μ Eq
same,TOTAL OUTPUT (gastric acid),gastric acid output; [5],306 ± 62 μ Eq
same,Stereotypy Score,"rats [2]; 1 mg/kg I.P., rated one hour, maximum 18, N=6, mean ±SEM",16.5 ± 0.8
same,Duration of Effect (stereotypy),rats [2]; 1 mg/kg I.P.,116 ± 12 min
same,Duration of Effect (stereotypy),rats [2]; 1 mg/kg P.O.,112 ± 20 min
same,Stereotypy Score,"rats [2]; 1 mg/kg S.C., rated one hour, maximum 18, N=6, mean ±SEM",17.5 ± 0.4
same,Duration of Effect (stereotypy),rats [2]; 1 mg/kg S.C.,106 ± 10 min
same,Stereotypy Score for 30 min after MDO--NPA,rats [2]; 1 mg/kg i.p.,16.5 ± 1.2
same,Stereotypy Score for 30 min after MDO--NPA,rats [2]; 1 mg/kg p.o.,15.5 ± 1.6
same,Stereotypy Score,"rats [2]; MDO-NPA 0.3 mg/kg, haloperidol 0, 60 min, maximum 18, N=6",11.6 ± 0.8
same,Stereotypy Score,"rats [2]; MDO-NPA 0.3 mg/kg, haloperidol 0.3 mg/kg 30 min before, p<0.0001",0.3 ± 0.2
same,Stereotypy Score,"rats [2]; MDO-NPA 0.3 mg/kg, haloperidol 1.0 mg/kg 30 min before, p<0.0001",0.3 ± 0.2
same,Stereotypy Score,"rats [2]; MDO-NPA 1.0 mg/kg, haloperidol 0, 60 min, maximum 18, N=6",16.6 ± 0.4
same,Stereotypy Score,"rats [2]; MDO-NPA 1.0 mg/kg, haloperidol 0.3 mg/kg 30 min before, p<0.0001",0.5 ± 0.2
same,Stereotypy Score,"rats [2]; MDO-NPA 1.0 mg/kg, haloperidol 1.0 mg/kg 30 min before, p<0.0001",1.2 ± 0.4
same,Stereotypy,"rats [2]; SKF-525A 40 mg/kg i.p. before MDO-NPA 0.30 mg/kg i.p., p<0.01 vs control",1.7 ± 0.6
same,Stereotypy,"rats [2]; SKF-525A 40 mg/kg i.p. before MDO-NPA 1.0 mg/kg i.p., p<0.01 vs control",0.8 ± 0.2
same,Stereotypy,"rats [2]; SKF-525A 40 mg/kg i.p. before MDO-NPA 3.0 mg/kg i.p., p<0.01 vs control",0.8 ± 0.5
same,Stereotypy,"rats [2]; control (vehicle pretreated), MDO-NPA 0.30 mg/kg i.p., score over one hour",12.8 ± 0.6
same,Stereotypy,"rats [2]; control (vehicle pretreated), MDO-NPA 1.0 mg/kg i.p., score over one hour",16.5 ± 0.1
same,Stereotypy,"rats [2]; control (vehicle pretreated), MDO-NPA 3.0 mg/kg i.p., score over one hour",16.2 ± 0.9
same,dependence of duration of action on dose,rats [2]; i.p.,consistent increase in duration of action with increased dose
same,duration of stereotyped behavioral effects vs other agents,"rats [2]; i.p., for MDO-NPA at doses above 1 μmole/kg",exceeded that of NPA
same,Adenylate cyclase stimulation (cAMP),Adenylate cyclase,2.92 ± 0.32 pmol/assay
same,Duodenal Ulcer Intensity (Scale: 0-3),duodenal ulcers; [7],0.8
same,Duodenal Ulcer Incidence (Positive/Total),duodenal ulcers; [7],4/6
same,Duodenal Ulcer Intensity (Scale: 0-3),duodenal ulcers; [8],0.5
same,Duodenal Ulcer Incidence (Positive/Total),duodenal ulcers; [8],3/6
same,"effect on incidence and intensity of duodenal ulcers and gastric acid output, oral",duodenal ulcers; administered orally,reduces the incidence and intensity of duodenal ulcers and the gastric acid output
same,dose effective in preventing ulcers,duodenal ulcers; once daily for seven days before cysteamine-hydrochloride,50 micrograms per hundred grams of body weight
same,effect on cysteamine-induced duodenal ulcers,duodenal ulcers; rats given cysteamine,significant prevention of experimental duodenal ulcers; also recorded: virtually abolished
same,effect of a single high dose on duodenal ulcers,duodenal ulcers; single high dose,active
